{"source": "the NIST ThermoML archive (doi:10.1016/j.jct.2017.08.012)", "details": "101.33 kPa, Liquid, Vibrating tube method", "note": "Numbers after ± are expanded uncertainties.", "data": [{"smiles": "CCCCCC", "note": "[hexane]", "values": [{"measurement": "mass density", "setting": "293.15 K", "value": "659.4 ± 4.1", "unit": "kg/m3"}, {"measurement": "mass density", "setting": "298.15 K", "value": "654.76 ± 4", "unit": "kg/m3"}, {"measurement": "mass density", "setting": "303.15 K", "value": "650.21 ± 4", "unit": "kg/m3"}, {"measurement": "mass density", "setting": "308.15 K", "value": "645.43 ± 4", "unit": "kg/m3"}, {"measurement": "mass density", "setting": "313.15 K", "value": "640.75 ± 4", "unit": "kg/m3"}]}]}
